Test results reported in patent US8633231B2, “Substituted imidazolones, compositions containing such compounds and methods of use” (Merck Sharp & Dohme Corp., priority 2010, dated 2014).

target: Recombinant human glucagon receptor-expressing CHO cells (Homo sapiens (Human), UniProt P47871); assay: Inhibition of Glucagon-Stimulated Intracellular cAMP Assay; assay type: cell-based; conditions: stimulation with 300 pM glucagon; LANCE cAMP Kit
Description: Inhibition of Glucagon-Stimulated Intracellular cAMP Assay
Recombinant human glucagon receptor-expressing CHO cells were harvested using a non-enzymatic cell dissociation solution (GIBCO 2672), pelleted and resuspended in stimulation buffer (1×HBSS, 5 mM Hepes, 0.1% BSA, pH7.4 in the presence of proteinase inhibitor and phosphodiesterase inhibitors). The adenylate cyclase assay was constructed following the LANCE cAMP Kit (Perkin Elmer, AD0264) instructions. Briefly, cells were preincubated with anti-cAMP antibody and 12 points series diluted compound in stimulation buffer with a final concentration of 3% DMSO for 30 minutes prior to stimulation with 300 pM glucagon for 45 minutes. The reaction was stopped by incubating with the supplied detection buffer containing Europium chelate of the Eu-SA/Biotin-cAMP tracer for 20 hours. The assay was done as triplicates in a 384 well plate. Fluorescence at 665 nm was measured using PheraStar instruments. Basal activity (100% inhibition) was determined using the DMSO control and 0% inhibition was defined as cAMP stimulation produced by 300 pM glucagon. Standard cAMP concentrations were assayed concurrently for conversion of fluorescence signal to cAMP level. Data was analyzed using the software program Prism from GraphPad. IC50 values were calculated using non-linear regression analysis assuming single site competition.

Chain of Recombinant human glucagon receptor-expressing CHO cells (P47871 26-477): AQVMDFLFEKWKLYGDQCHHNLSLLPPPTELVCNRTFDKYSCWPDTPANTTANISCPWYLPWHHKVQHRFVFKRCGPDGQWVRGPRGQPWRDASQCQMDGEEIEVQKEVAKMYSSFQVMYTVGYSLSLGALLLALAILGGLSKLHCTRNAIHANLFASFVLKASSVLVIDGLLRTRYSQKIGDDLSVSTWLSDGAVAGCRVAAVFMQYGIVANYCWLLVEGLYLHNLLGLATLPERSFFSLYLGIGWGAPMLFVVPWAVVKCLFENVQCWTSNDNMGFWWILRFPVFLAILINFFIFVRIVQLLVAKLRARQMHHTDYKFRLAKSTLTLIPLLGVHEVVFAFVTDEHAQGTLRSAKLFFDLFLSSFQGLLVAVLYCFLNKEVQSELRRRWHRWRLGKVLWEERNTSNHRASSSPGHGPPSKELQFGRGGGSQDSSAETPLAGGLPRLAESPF

IC50 [µM] | Compound
0.8 | CC(C)(C)CC[C@H](c1ccc(C(=O)NCCC(=O)O)cc1)N1C(=O)C(c2cc(Cl)cc(Cl)c2)=NC1(C)C [Example 1]
1.7 | CC1(C2CCCCC2)N=C(c2cc(Cl)cc(Cl)c2)C(=O)N1CCc1ccc(C(=O)NCCC(=O)O)cc1 (centres unmarked) [Example 11]
1.1 | CC(C)CC1(C)N=C(c2cc(Cl)cc(Cl)c2)C(=O)N1[C@H](CCC(C)(C)C)c1ccc(C(=O)NCc2nn[nH]n2)cc1 (some centres unmarked) [Example 4]
3.7 | CC(C)(C)CC[C@H](c1ccc(C(=O)NCc2nn[nH]n2)cc1)N1C(=O)C(c2cc(Cl)cc(Cl)c2)=NC1(C)C [Example 2]
4.2 | CC(C)CC1(C)N=C(c2cc(Cl)cc(Cl)c2)C(=O)N1CCc1ccc(C(=O)NCCC(=O)O)cc1 (centres unmarked) [Example 13]
5.1 | CC(C)CC1(C)N=C(c2cc(Cl)cc(Cl)c2)C(=O)N1[C@H](CCC(C)(C)C)c1ccc(C(=O)Nc2nn[nH]n2)cc1 (some centres unmarked) [Example 5]
5.1 | CC1(C2CCCCC2)N=C(c2ccc(OC(F)(F)F)cc2)C(=O)N1CCc1ccc(C(=O)NCCC(=O)O)cc1 (centres unmarked) [Example 14]
3.4 | CC(C)CC1(C)N=C(c2cccc(F)c2)C(=O)N1[C@H](CCC(C)(C)C)c1ccc(C(=O)NCc2nn[nH]n2)cc1 (some centres unmarked) [Example 6]
8.4 | CC(C)(C)CC[C@H](c1ccc(C(=O)NCc2nn[nH]n2)cc1)N1C(=O)C(c2cccc(F)c2)=NC1(C)C [Example 10]
5.9 | CC(C)(C)CC[C@H](c1ccc(C(=O)Nc2nn[nH]n2)cc1)N1C(=O)C(c2cccc(F)c2)=NC1(C)C [Example 9]
6.2 | CC(C)(C)CC[C@H](c1ccc(C(=O)Nc2nn[nH]n2)cc1)N1C(=O)C(c2cc(Cl)cc(Cl)c2)=NC1(C)C [Example 3]
2 | CCCC[C@H](c1ccc(C(=O)NCCC(=O)O)cc1)N1C(=O)C(c2cc(Cl)cc(Cl)c2)=NC1(C)C [Example 20]
4.9 | CC(C)(C)CC[C@H](c1ccc(C(=O)NCCC(=O)O)cc1)N1C(=O)C(c2cccc(F)c2)=NC1(C)C [Example 8]
1.7 | CC1(C)N=C(c2cc(Cl)cc(Cl)c2)C(=O)N1[C@@H](c1ccc(C(=O)NCCC(=O)O)cc1)C1CC1 [Example 17]
1.7 | CC1(C)N=C(c2cc(Cl)cc(Cl)c2)C(=O)N1CCc1ccc(C(=O)NCCC(=O)O)cc1 [Example 12]
3.5 | CC1(C2CCCCC2)NC(c2cccc(C(F)(F)F)c2)C(=O)N1CCc1ccc(C(=O)NCCC(=O)O)cc1 (centres unmarked) [Example 15]
1 | CCCC[C@H](c1ccc(C(=O)NCCC(=O)O)cc1)N1C(=O)C(c2ccc(-c3cc(Cl)cc(Cl)c3)cc2)=NC1(C)C [Example 18]
8.3 | CC1(C)N=C(c2ccc(OC(F)(F)F)cc2)C(=O)N1CCc1ccc(C(=O)NCCC(=O)O)cc1 [Example 16]
0.6 | CC(C)CC1(C)N=C(c2cc(Cl)cc(Cl)c2)C(=O)N1[C@H](CCC(C)(C)C)c1ccc(C(=O)NCCC(=O)O)cc1 (some centres unmarked) [Example 7]
1.3 | CC(C)[C@H](c1ccc(C(=O)NCCC(=O)O)cc1)N1C(=O)C(c2cc(Cl)cc(Cl)c2)=NC1(C)C [Example 19]
